Measurements reported in PMC9090566 (RSC Advances, 2018).

Target: T4 polynucleotide kinase (T4 PNK) (Tequatrovirus T4, UniProt P06855)
Format: biochemical

Sequence of T4 polynucleotide kinase (T4 PNK) (P06855 whole entry): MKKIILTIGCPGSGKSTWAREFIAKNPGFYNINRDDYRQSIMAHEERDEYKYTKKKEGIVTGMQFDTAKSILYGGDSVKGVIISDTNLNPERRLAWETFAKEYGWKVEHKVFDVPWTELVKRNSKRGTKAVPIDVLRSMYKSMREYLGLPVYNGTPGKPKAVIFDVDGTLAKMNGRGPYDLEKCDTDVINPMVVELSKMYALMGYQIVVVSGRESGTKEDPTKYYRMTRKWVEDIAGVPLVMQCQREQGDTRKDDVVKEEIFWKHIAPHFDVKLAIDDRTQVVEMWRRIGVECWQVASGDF

IC50: 18 mM
SMILES: O=S(=O)(O)O [(NH4)2SO4]
